Where only a bound is given, the exact number is not on record here.

Chain of Glycogen synthase kinase-3 beta (P49841 whole entry): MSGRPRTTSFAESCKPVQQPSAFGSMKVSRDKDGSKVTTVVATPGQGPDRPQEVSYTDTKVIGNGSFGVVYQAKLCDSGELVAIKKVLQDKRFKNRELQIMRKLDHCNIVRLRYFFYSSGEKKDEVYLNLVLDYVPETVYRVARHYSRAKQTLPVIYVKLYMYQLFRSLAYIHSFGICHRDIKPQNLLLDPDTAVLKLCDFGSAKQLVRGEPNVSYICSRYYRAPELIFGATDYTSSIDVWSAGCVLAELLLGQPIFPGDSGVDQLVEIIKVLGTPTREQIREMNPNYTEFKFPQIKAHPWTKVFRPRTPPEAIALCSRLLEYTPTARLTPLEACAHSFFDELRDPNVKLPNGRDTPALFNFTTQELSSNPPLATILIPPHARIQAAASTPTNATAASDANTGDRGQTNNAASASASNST

The assay has as its target Glycogen synthase kinase-3 beta (Homo sapiens, UniProt P49841). Put plainly: GSK3beta kinase inhibitor potency, dose response, biochemical, luminescence, cell-free homogeneous, retest (AID 434954).
`COC(=O)C1=CN(Cc2ccc(OC)c(OC)c2)C=C(C(=O)OC)C1c1ccccc1F` [1-(3,4-Dimethoxy-benzyl)-4-(2-fluoro-phenyl)-1,4-dihydro-pyridine-3,5-dicarboxylic acid dimethyl ester] returned an EC50 of more than 300 µM.

Take `O=C(CSc1nnc(-c2ccncc2)n1-c1ccc(F)cc1)NC(=O)NCc1ccco1` [SMR000065428]: the EC50 was more than 300 µM.

As for `O=C(OCCCOC(=O)c1cc[n+]([O-])cc1)c1cc[n+]([O-])cc1`, the EC50 is more than 300 µM.

On to `O=C(Nc1ccnc(-c2cccnc2)n1)c1ccc(Cl)c(Cl)c1` [MLS000327684], for which the EC50 was more than 300 µM.

In the case of `CCCCOc1ccc(/C=C/C(=O)OCC(=O)N2CC(=O)Nc3ccccc32)cc1OCC` [[2-oxidanylidene-2-(3-oxidanylidene-2,4-dihydroquinoxalin-1-yl)ethyl] (E)-3-(4-butoxy-3-ethoxy-phenyl)prop-2-enoate], the EC50 was more than 300 µM.

In the case of `O=C(NN=Cc1ccc(-c2ccc(Cl)c(C(=O)O)c2)o1)c1cc2c(ccc3ccccc32)o1` [5-[5-[(benzo[e][1]benzofuran-2-carbonylhydrazinylidene)methyl]furan-2-yl]-2-chlorobenzoic acid], the EC50 was more than 300 µM.

As for `N#Cc1c(N)nc2c(c1-c1ccc(F)cc1)CCC2`, the EC50 is more than 300 µM.

As for `COc1ccc(-c2nn(-c3ccccc3)cc2CN=Nc2ccccn2)cc1OC` [MLS000388893], it took 66.1 µM to reach a half-maximal effect (EC50).

`O=C(NCC(c1ccco1)N1CCc2ccccc21)c1cccc([N+](=O)[O-])c1` (stereo not given) [SMR000811914]: the EC50 was more than 300 µM.

In the case of `Cc1c(Cc2ccccc2)c(=O)oc2cc(O)cc(O)c12` [SMR000300454], the response was half-maximal at 15.8 µM (EC50).

Turning to `CN=C(NC#N)SCC(=O)c1ccc(Cl)cc1Cl` [[2-(2,4-dichlorophenyl)-2-oxidanylidene-ethyl] N-cyano-N'-methyl-carbamimidothioate], a half-maximal effect (EC50) was put at 3.19 µM.

`COC(CNc1nc(SC)nc2sc3c(c12)CCN(C)C3)OC` [MLS001215082] had an EC50 of more than 300 µM.

Take `COc1ccc(-c2c(C)oc3ccc(C)cc23)cc1` [MLS000562305]: the EC50 is more than 300 µM.

In turn, `Cc1cnc(NC(=O)c2sc(Nc3ccccc3)nc2N)o1` [MLS000762724] came in with an EC50 of 9.59 µM.

Molecule `Cc1cc(C)n2nc(C(=O)NN=Cc3ccc(O)cc3)nc2n1` [5,7-dimethyl-N'-[(4-oxocyclohexa-2,5-dien-1-ylidene)methyl]-[1,2,4]triazolo[1,5-a]pyrimidine-2-carbohydrazide] returned an EC50 of 15.4 µM.

Take `Nc1nc(NCc2ccco2)nc(Nc2cccc(F)c2)c1[N+](=O)[O-]` [SMR000436034]: the EC50 is more than 300 µM.

`CCOc1ccc(N2C(=O)S/C(=C\c3cccn3C)C2=O)cc1` [MLS000580380] yielded an EC50 of more than 300 µM.

With `COc1cccc(-n2c(Cn3nc(C(F)F)cc3C(F)F)n[nH]c2=S)c1` [3-[[3,5-bis(difluoromethyl)-1-pyrazolyl]methyl]-4-(3-methoxyphenyl)-1H-1,2,4-triazole-5-thione], the EC50 is more than 300 µM.

As for `Clc1cccc(Nc2nc(-c3ccncc3)nc3ccccc23)c1`, the EC50 stood at 56.8 µM.

For the molecule `Nc1nonc1-n1nnc(C(=O)NN=Cc2cccc(Cl)c2)c1CN1CCCC1`, the EC50 came to 5.25 µM.

On to `CCCN(CCC)Cc1c(C(=O)NN=C/C(C)=C\c2ccccc2)nnn1-c1nonc1N` [1-(4-azanyl-1,2,5-oxadiazol-3-yl)-5-[(dipropylamino)methyl]-N-[[(Z)-2-methyl-3-phenyl-prop-2-enylidene]amino]-1,2,3-triazole-4-carboxamide], for which the EC50 was more than 300 µM.

`CCN(CC)Cc1c(C(=O)OC(C)C)nnn1-c1nonc1N` [propan-2-yl 1-(4-azanyl-1,2,5-oxadiazol-3-yl)-5-(diethylaminomethyl)-1,2,3-triazole-4-carboxylate] yielded an EC50 of more than 300 µM.

The molecule `CC1(C)CC(=O)C2C(=Nc3[nH]c(=S)[nH]c(=O)c3C2c2ccccc2)C1` (stereo not given) [8,8-dimethyl-5-phenyl-2-sulfanylidene-5,7,9,10-tetrahydro-1H-pyrimido[4,5-b]quinoline-4,6-dione] had a concentration giving a half-maximal response (EC50) of more than 300 µM.

Consider `CCCc1cc(=O)oc2cc(C)c(CN3CCCC3)c(O)c12` [5-hydroxy-7-methyl-4-propyl-6-(1-pyrrolidinylmethyl)-2H-chromen-2-one], for which the EC50 is more than 300 µM.

As to `COc1ccc(OC)c(Nc2nc(NCCCN(C)C)nc(N)c2[N+](=O)[O-])c1` [3-[[4-amino-6-(2,5-dimethoxyanilino)-5-nitro-pyrimidin-2-yl]amino]propyl-dimethyl-amine], a half-maximal response (EC50) required 2.74 µM.

Molecule `O=C(CSc1nnc(CNC(=O)c2c(F)cccc2F)o1)NCc1ccc(F)cc1` gave an EC50 of more than 300 µM.

In turn, `O=C1C[C@@H](c2ccc(O)c(O)c2)Oc2cc(O)cc(O)c21` [2-[3,4-bis(oxidanyl)phenyl]-5,7-bis(oxidanyl)-2,3-dihydrochromen-4-one] displayed an EC50 of more than 300 µM.

In turn, `C=CCNC(=O)/C(=C\c1cccc([N+](=O)[O-])c1)NC(=O)c1ccccc1` came in with an EC50 of more than 300 µM.

For the molecule `CCn1c(COc2ccccc2)nnc1SCC(=O)NC1CC1`, the half-maximal effective concentration (EC50) was more than 300 µM.

Molecule `Cc1cccc(Nc2nc(NCc3ccco3)nc(N)c2[N+](=O)[O-])c1` [2-N-(furan-2-ylmethyl)-4-N-(3-methylphenyl)-5-nitropyrimidine-2,4,6-triamine] returned a half-maximal effective concentration (EC50) of 64.4 µM.

The molecule `COC(=O)c1cccc(Nc2nc(-c3ccncc3)nc3ccccc23)c1` [MLS001163930] had a half-maximal effective concentration (EC50) of more than 300 µM.

In turn, `Nc1nnnn1/N=C/c1ccc(N2CCCCC2)c([N+](=O)[O-])c1` [SMR000174985] returned a concentration giving a half-maximal response (EC50) of more than 300 µM.

Regarding `O=C(CCl)Oc1ccc2occ(C(=O)c3cccs3)c2c1` [SMR000121351], the EC50 was 4.54 µM. That is a single-digit micromolar value.

Consider `CC(C)c1ccc(NS(=O)(=O)c2ccc(Cl)nc2)cc1` [6-chloro-N-(4-propan-2-ylphenyl)pyridine-3-sulfonamide], for which the EC50 was more than 300 µM.

`CCCn1nc(NC(=O)CC(C)C)c2cc3ccccc3nc21` [SMR000043522] returned an EC50 of more than 300 µM.

`COCCNc1nc(SC)nc2sc3c(c12)CCN(C)C3` [N-(2-methoxyethyl)-7-methyl-2-methylsulfanyl-6,8-dihydro-5H-pyrido[4,5]thieno[1,2-c]pyrimidin-4-amine] registered an EC50 of 198 µM.

As for `CN1CCc2c(sc3c2c(=O)n(-c2cccc(Cl)c2)c2nncn32)C1` [MLS000084041], the EC50 was more than 300 µM.

Regarding `Cc1ccc(C(=O)c2coc3ccc(O)c(Cl)c23)cc1` [(4-chloro-5-hydroxy-3-benzofuranyl)-(4-methylphenyl)methanone], the EC50 is more than 300 µM.

As to `CC(C)CCNc1nc(N)c([N+](=O)[O-])c(NCC2CCCO2)n1` (stereo not given) [SMR000220274], the EC50 was 1.43 µM.

The molecule `CCN1/C(=C/C(C)=C/c2sc3ccccc3[n+]2CC)Sc2ccccc21` [SMR000354813] returned an EC50 of 24.7 µM.

`COc1cccc(N(C(=O)C[S+]([O-])CC(=O)Nc2ccc(F)cc2)C(C(=O)NC2CCCCC2)c2cccs2)c1` (stereo not given) [MLS000566826]: the EC50 is more than 300 µM.

`COc1ccc(-c2nn(-c3ccccc3)cc2CN=Nc2ccc(Cl)c(C(=O)O)c2)cc1OC` [SMR000371971] gave an EC50 of more than 300 µM.

In turn, `CSc1nc(NCC(C)O)c2c3c(sc2n1)CN(C)CC3` (stereo not given) [1-[(7-methyl-2-methylsulfanyl-6,8-dihydro-5H-pyrido[4,5]thieno[1,2-c]pyrimidin-4-yl)amino]propan-2-ol] came in with an EC50 of 18.3 µM. In other words, the double-digit micromolar range.

For `Clc1ccccc1Nc1nc(-c2ccncc2)nc2ccccc12` [MLS001163918], the concentration for a half-maximal effect (EC50) was more than 300 µM.

As for `CC(=O)c1ccc(NC(=O)CN2C(=O)CCC2=O)cc1` [N-(4-acetylphenyl)-2-(2,5-dioxo-1-pyrrolidinyl)acetamide], the concentration giving a half-maximal response (EC50) was more than 300 µM.

`O=C(Nc1ccccn1)c1ccc(C(=O)Nc2ccccn2)cc1` [SMR000502618] showed an EC50 of more than 300 µM.

Molecule `Cc1ccc(Nc2nc(N)c([N+](=O)[O-])c(NCc3ccccc3)n2)cc1` [N2-(4-methylphenyl)-5-nitro-N4-(phenylmethyl)pyrimidine-2,4,6-triamine] had a 50% effective concentration (EC50) of more than 300 µM.

`COC(=O)c1ccc2c(=O)n(CC3CCCO3)c(SCC(=O)Nc3ccccc3Cl)nc2c1` (stereo not given) [2-[[2-(2-chloroanilino)-2-keto-ethyl]thio]-4-keto-3-(tetrahydrofurfuryl)quinazoline-7-carboxylic acid methyl ester] returned an EC50 of more than 300 µM.

Molecule `Cc1ccc(C(=O)c2coc3ccc(O)c(CN(C)C)c23)cc1` [(4-Dimethylaminomethyl-5-hydroxy-benzofuran-3-yl)-p-tolyl-methanone] yielded an EC50 of more than 300 µM.

`CCCCn1nc(NC(=O)COC)c2cc3cc(OC)ccc3nc21` [N-(1-butyl-6-methoxy-3-pyrazolo[3,4-b]quinolinyl)-2-methoxyacetamide] gave a concentration giving a half-maximal response (EC50) of more than 300 µM.

Take `Cc1ccc2c(c1)NC(=O)c1cc([N+](=O)[O-])ccc1O2` [8-methyl-2-nitrodibenzo[b,f][1,4]oxazepin-11(10H)-one]: the EC50 is more than 300 µM.

On to `Cc1ccc(SCCc2ccc(C)nc2)cc1`, for which the EC50 was more than 300 µM.

Consider `CC(C)N(Cc1nnc(-c2ccc(Cl)cc2)o1)C(=O)C1=COCCO1`, for which the EC50 is more than 300 µM.

For the molecule `CCOC(=O)CSc1ccc2nnc(-c3cccnc3)n2n1` [SMR000018940], the EC50 is more than 300 µM.

In turn, `Cc1ccc(C(C(=O)NC2CCCCC2)N(CC2CCCO2)C(=O)CNC(=O)c2cccs2)cc1` (stereo not given) [N-[2-[[2-(cyclohexylamino)-1-(4-methylphenyl)-2-oxoethyl]-(oxolan-2-ylmethyl)amino]-2-oxoethyl]thiophene-2-carboxamide] displayed an EC50 of more than 300 µM.

As to `O=C1C(=O)N(c2ccccn2)C(c2ccc(Br)cc2)C1C(=O)c1ccc(Br)cc1` (stereo not given), the EC50 was more than 300 µM.

Molecule `O=c1oc2cc(O)ccc2cc1-c1ccccc1` [7-Hydroxy-3-phenyl-chromen-2-one] registered an EC50 of more than 300 µM.

Molecule `CNc1nc(N)c([N+](=O)[O-])c(Nc2ccccc2OC)n1` [N4-(2-methoxyphenyl)-N2-methyl-5-nitro-pyrimidine-2,4,6-triamine] returned an EC50 of 3.44 µM.

The molecule `Cc1cc(CNC(=O)C(C)n2cc([N+](=O)[O-])cn2)c2ccccc2n1` (stereo not given) [SMR000307388] displayed a 50% effective concentration (EC50) of more than 300 µM.

Consider `c1ccc2c(Nc3nc(-c4ccncc4)nc4ccccc34)cccc2c1` [N-naphthalen-1-yl-2-pyridin-4-ylquinazolin-4-amine], for which the concentration giving a half-maximal response (EC50) was more than 300 µM.

In general, EC50 refers to the midpoint of the concentration-response curve. The low end stands for a more potent agent, the high end for a less potent agent.

These data come from BindingDB's records for doi:10.7270/Q2TX3CTT (Broad Institute, 2010).
